Reference: publication PMC11912270, “Synthesis and SAR Studies of Acyl-Thiourea Platinum(II) Complexes Yield Analogs with Dual-Stage Antiplasmodium Activity” (ACS Medicinal Chemistry Letters, 2025)

Columns and labels:
ABS parasites = assay: Dual point activity against ABS parasites; format: cell-based, Plasmodium falciparum; details: single biological repeat
From the text: Table S2: Dual point activity of platinum(II) complexes against ABS parasites, early- and late-
stage gametocytes. Values are averaged from technical triplicates performed for a single

[1] = Single-point microsomal metabolic stability, mouse; format: in vitro ADME; details: mouse liver microsomes, 1 µM
Protocol: 1.8. Microsomal metabolic stability studies […]
rat IGS, Xenotech), and mouse (male mouse CD1, Xenotech) liver microsomes (0.4 mg/ml) for 30 min at 37 °C. Reactions were quenched by adding ice-cold acetonitrile containing […]
disappearance of the parent compound. Half-life, clearance, and hepatic excretion ratios were determined using standard equations.6,7 Propranolol. […]

red blood cells (RBCs) = assay: Hemolysis assay; format: cell-based; details: up to 10 μM, 1 and 72 h
Protocol: The hemolysis assay was conducted in a 96-well round-bottom plate. A 10 mM stock of the test compound in DMSO was diluted to 10 μM using complete growth medium. Complete growth medium (100 μL) was added to all wells in columns 1 and columns 3–12. The test compound in a complete growth medium (200 μL) were added in duplicate to well 2 and serially diluted two-fold down the plate (from wells 2–11). Triton X-100 (4%, v/v) was used as
RBCs in complete growth medium
(2% hematocrit) were lysed via three freeze/thaw cycles (-80 °C/37 °C) and were added to all wells in column 1 (100 µL). Intact RBCs in complete growth medium were added to wells 2– 12 and the plates were incubated at 37 °C for either 1 hour or 72 hours. After removing the plates from the incubator, each well was mixed thoroughly with a multichannel pipette and spun in a centrifuge at 750 rcf for 5 minutes. The supernatant was transferred to a 96-well flat-bottom plate and the absorbance of each well read on a microplate reader (Thermo Scientific
Percentage hemolysis was calculated using Equation 2 and the graphs generated using GraphPad Prism 10.
% ℎ𝑒𝑚𝑜𝑙𝑦𝑠𝑖𝑠 = (𝐴𝑠 ― 𝐴0) × 100 𝑬𝒒. 𝟐

PfK1 ABS parasites = format: cell-based, Plasmodium falciparum
Protocol: The parasites were incubated under drug […]
incubation, parasite survival was determined by adding equal volumes of parasite suspension (100 µL) and SYBR Green I lysis buffer (0.2% µL/mL of 10 000x SYBR Green I, 20 mM Tris-HCl, pH 7.5, 5 mM EDTA, 0.008% saponin (w/v) and 0.08% Triton x-100). This was incubated for 1 hour at room temperature in the dark. […]

## Nc1cc[n+]2c(c1)-c1cc(N)cc[n+]1[Pt-2]21[O+]=C(c2ccccc2)N=C(N(CCO)CCO)[S]1.[Cl-] [C6]
ABS parasites; 1 µM
  ABS (% inhibition) 1 µM: 100.7 % inhibition
ABS parasites; 5 µM
  ABS (% inhibition) 5 µM: 100.2 % inhibition
[1]
  Microsomal metabolic stability (% remaining after 30 min) Mouse: 94 % remaining
Red blood cells (RBCs)
  in vitro hemolytic activity: do not induce hemolysis
PfK1 ABS parasites; ABS, SYBR Green I, 96 h, mean ± S.E.
  IC50: 102 ± 13 nM
PfK1 ABS parasites; RI = PfK1 IC50/PfNF54 IC50
  RI (resistance index): 2.8
